Reference: US9204653B2, “5-fluoro pyrimidine derivatives” (DOW AGROSCIENCES LLC, priority 2008, dated 2015)
Where two headings read alike, the source gives them in different places.

System: Mycosphaerella graminicola; Anamorph: Septoria tritici; Bayer Code SEPTTR
Assay: Leaf blotch of wheat, foliar fungicide treatment, one day protectant (1DP) or three day curative (3DC)
Type: in vivo, Septoria tritici on wheat plants (variety Yuma)
Conditions: Zymoseptoria tritici
[1] = 24 h, one day protectant, 25 ppm, rating of percent disease control, read-out: SETTTR 1DP 25 ppm
[2] = 24 h, one day protectant, rating of percent disease control, read-out: SEPTTR 1DP 100 ppm
[3] = 72 h, three day curative, 25 ppm, rating of percent disease control, read-out: SEPTTR 3DC 25 ppm
[4] = 72 h, three day curative, rating of percent disease control, read-out: SEPTTR 3DC 100 ppm
[5] = 24 h, one day protectant (1DP), 25 ppm, percent disease control rating, read-out: SETTTR 1DP 25 ppm
[6] = 24 h, one day protectant (1DP), percent disease control rating, read-out: SEPTTR 1DP 100 ppm
[7] = 72 h, three day curative (3DC), 25 ppm, percent disease control rating, read-out: SEPTTR 3DC 25 ppm
[8] = 72 h, three day curative (3DC), percent disease control rating, read-out: SEPTTR 3DC 100 ppm
[9] = 24 h, one day protectant (1DP), 25 ppm, rating of percent disease control, read-out: SETTTR 1DP 25 ppm
[10] = 24 h, one day protectant (1DP), rating of percent disease control, read-out: SEPTTR 1DP 100 ppm
[11] = 72 h, three day curative (3DC), 25 ppm, rating of percent disease control, read-out: SEPTTR 3DC 25 ppm
[12] = 72 h, three day curative (3DC), rating of percent disease control, read-out: SEPTTR 3DC 100 ppm
[13] = 24 h, one day protectant (1DP), 25 ppm (first 1DP column), percent control rating, read-out: SETTTR 1DP 25 ppm
[14] = 24 h, one day protectant (1DP), 25 ppm as printed (second 1DP column), percent control rating, read-out: SETTTR 1DP 25 ppm
[15] = 72 h, three day curative (3DC), 25 ppm, percent control rating, read-out: SEPTTR 3DC 25 ppm
[16] = 72 h, three day curative (3DC), percent control rating, read-out: SEPTTR 3DC 100 ppm

SMILES | pest or weed control at 25 ppm [1] [%] | pest or weed control at 100 ppm [2] [%] | pest or weed control at 25 ppm [3] [%] | pest or weed control at 100 ppm [4] [%] | pest or weed control at 25 ppm [9] [%] | pest or weed control at 100 ppm [10] [%] | pest or weed control at 25 ppm [11] [%] | pest or weed control at 100 ppm [12] [%] | further results
COc1cccc(COc2ncc(F)c(NC(C)=O)n2)c1 [Compound 550] | 76 to 100 | 76 to 100 | 76 to 100 | 76 to 100 |  |  |  |  | 
COc1cccc(COc2ncc(F)c(N/N=C/c3cccs3)n2)c1 [Compound 45, (E)-5-Fluoro-2-(3-methoxybenzyloxy)-4-(2-(thiophen-2-ylmethylene)-hydrazinyl)pyrimidine] |  |  |  |  |  |  |  |  | pest or weed control at 25 ppm [5]: 51 to 75%; pest or weed control at 100 ppm [6]: 76 to 100%; pest or weed control at 25 ppm [7]: 26 to 50%; pest or weed control at 100 ppm [8]: 26 to 50%
CCOC(=O)C(=O)Nc1nc(OCc2ccc(C)cc2)ncc1F [Compound 553] | 76 to 100 | 76 to 100 | 76 to 100 | 76 to 100 |  |  |  |  | 
Cn1ccc(COc2ncc(F)c(N)n2)n1 [Compound 55] |  |  |  |  |  |  |  |  | pest or weed control at 25 ppm [5]: 76 to 100%; pest or weed control at 100 ppm [6]: 76 to 100%; pest or weed control at 25 ppm [7]: 76 to 100%; pest or weed control at 100 ppm [8]: 76 to 100%
COCCOC(=O)Oc1ncc(F)c(/N=C/N(C)C)n1 [Compound 389] |  |  |  |  | 76 to 100 | 76 to 100 | 76 to 100 | 76 to 100 | 
CCC(C)/C(C)=N/Nc1nc(OC)ncc1F (stereo not drawn) [Compound 1018] |  |  |  |  |  |  |  |  | pest or weed control at 25 ppm [13]: 0 to 25%; pest or weed control at 25 ppm [14]: 0 to 25%; pest or weed control at 25 ppm [15]: 0 to 25%; pest or weed control at 100 ppm [16]: 0 to 25%
CCc1ccccc1NNc1nc(OCc2ccc(C)cc2)ncc1F [Compound 995] |  |  |  |  |  |  |  |  | pest or weed control at 25 ppm [13]: 0 to 25%; pest or weed control at 25 ppm [14]: 26 to 50%; pest or weed control at 25 ppm [15]: 0 to 25%; pest or weed control at 100 ppm [16]: 0 to 25%
Nc1nc(COc2ccc(COc3ncc(F)c(N)n3)cc2)ncc1F [Compound 546] |  |  |  |  | 51 to 75 | 51 to 75 | 51 to 75 | 0 to 25 | 
O=CNc1nc(OS(=O)(=O)c2ccccc2)ncc1F [Compound 646] | 51 to 75 | 76 to 100 | 76 to 100 | 76 to 100 |  |  |  |  | 
O=C(Cc1ccccc1)Nc1nc(OCc2ccc(F)cc2)ncc1F [Compound 394] |  |  |  |  | 76 to 100 | 76 to 100 | 76 to 100 | 76 to 100 | 
CCCNC(=S)Nc1nc(OCc2cccc(F)c2)ncc1F [Compound 568] | 51 to 75 | 76 to 100 | 76 to 100 | 76 to 100 |  |  |  |  | 
Nc1nc(OCc2cccnc2)ncc1F [Compound 763] |  |  |  |  | 76 to 100 | 76 to 100 | 76 to 100 | 76 to 100 | 
COc1ncc(F)c(NOCc2ccc([N+](=O)[O-])cc2)n1 [Compound 1073] |  |  |  |  |  |  |  |  | pest or weed control at 25 ppm [13]: 26 to 50%; pest or weed control at 25 ppm [14]: 0 to 25%; pest or weed control at 25 ppm [15]: 0 to 25%; pest or weed control at 100 ppm [16]: 0 to 25%
CCCCOc1cccc(COc2ncc(F)c(N)n2)c1 [Compound 708] | 76 to 100 | 76 to 100 | 76 to 100 | 76 to 100 |  |  |  |  | 
CCOCCOc1cccc(COc2ncc(F)c(NC)n2)c1 [Compound 375] |  |  |  |  | 0 to 25 | 0 to 25 | 26 to 50 | 76 to 100 | 
CNc1nc(OCc2ccc(OC)c(OC)c2)ncc1F [Compound 589] | 0 to 25 | 0 to 25 | 0 to 25 | 0 to 25 |  |  |  |  | 
CCCCN(C)/C=N/c1nc(OCc2ccc(F)cc2)ncc1F [Compound 518] |  |  |  |  | 76 to 100 | 76 to 100 | 76 to 100 | 76 to 100 | 
COc1ccccc1COc1ncc(F)c(NCc2ccccc2F)n1 [Compound 865] |  |  |  |  |  |  |  |  | pest or weed control at 50 ppm (24 h, % disease control rating, one day protectant, 50 ppm): 26 to 50%; pest or weed control at 200 ppm (24 h, % disease control rating, one day protectant, 200 ppm): 76 to 100%
COc1ccccc1OC(=O)Oc1ncc(F)c(/N=C/N(C)C)n1 [Compound 444] |  |  |  |  | 76 to 100 | 76 to 100 | 76 to 100 | 76 to 100 | 
Oc1ncc(F)c(N/N=C/c2ccccc2Cl)n1 [Compound 1118] |  |  |  |  |  |  |  |  | pest or weed control at 25 ppm [13]: 0 to 25%; pest or weed control at 25 ppm [14]: 0 to 25%; pest or weed control at 25 ppm [15]: 0 to 25%; pest or weed control at 100 ppm [16]: 0 to 25%
